Test results reported in publication PMC13416357 (Molecules, 2026).
Where two headings read alike, the source gives them in different places.

Experiments:
[1] = biological target: T1, recombinant aSyn fibrils (Homo sapiens, UniProt P37840); parameters: method as in PMID 40256311; settings: in vitro binding properties of lead M503-1619; cited from earlier work
[2] = biological target: T2, Aβ (Homo sapiens, UniProt P05067); parameters: method as in PMID 40256311; settings: in vitro binding properties of lead M503-1619; cited from earlier work
T2 construct: from tissue; host or cells: Alzheimer disease (AD) brain tissue homogenate
T2 sequence (P05067 672-713 limits assumed): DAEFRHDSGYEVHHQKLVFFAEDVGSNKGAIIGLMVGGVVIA

[3] = biological target: T1, recombinant aSyn fibrils; assay: In vitro radioligand binding assay with [^3H]BF2846 in recombinant aSyn fibrils
Experimental: The affinity of the target compounds for aSyn was performed in recombinant human fibrils using an in vitro radioligand binding assay with [^3H]BF2846 as the radioligand, which binds to site 9 in recombinant aSyn fibrils [16].
In vitro radioligand biding assays were performed by using the pervious published method [12, 15] to measure the affinity of the target compounds for aSyn and Aβ. In brief, the radioligand for the aSyn assay was [^3H]BF2846 and the assay was conducted using recombinant fibrils. Three concentrations of test compounds (10 nM, 100 nM and 1 µM) were incubated with ~4 nM [^3H]BF2846 and 50 nM aSyn fibrils in a working buffer (50 mM Tris-HCl, 0.01% bovine serum albumin) at 37 °C for 1.5 h. The mixture (150 µL) was separated by filtration through a Unifilter-96 system (PerkinElmer, Shelton, CT, USA) and washed with an ice-cold buffer (10 mM Tris-HCl (pH 7.4), 15 mM NaCl and 20% EtOH) before scintillation counting. Total binding was defined in the absence of competitor, and non-specific binding was determined using 100 nM unlabeled BF2846. […] Data from three independent experiments were analyzed by non-linear regression in GraphPad Prism v.9.3.1 (GraphPad Inc., San Diego, CA, USA) to calculate Ki values using the equation, Ki = EC50/(1 + [radioligand]/Kd).

Structure (SMILES) | Ki [1] | Ki [2] | Ki [3]
COc1ccc(NC(=O)c2cnc(N3CCN(c4ccccn4)CC3)nc2N)cc1 [Compound M503-1619] | 6.5 nM | 390 nM | –
COc1ccc(NC(=O)c2cnc(N3CCN(c4ncccn4)CC3)nc2N)cc1 [GT-9-40] | – | – | 41.9 ± 13.8 nM
